Consider six compounds from patent publication US8334000B2, “Anti-angiogenic extracts from pomegranate” (priority 2003, dated 2012).

In series [1] the test system is human placental vein discs. Kind of series: Human placental vein angiogenesis model (HPVAM): initiation and angiogenic index. The conditions noted are these: for inhibition at 0.01 % strength: 0.01% w/v. It counts as cell-based. The text has this:
The Human Placental Vein Angiogenesis Model: Discarded human placentas were obtained anonymously with prior approval of an Institutional Review Board. The placental veins were dissected free from the placenta and adventitial tissue. The trimmed vein segment was opened longitudinally to produce a flat film of venous tissue of full thickness. Vein discs (2 mm diameter) were created with a sterile skin punch (Miltex Instrument Company, Inc.; Lake Success, N.Y.). The discs were placed into wells of a standard 96-well plate (Corning Inc., Corning, N.Y.). The vein disc harvest was completed within three hours of delivery to optimize endothelial cell viability. Vein discs from a single placenta were distributed equally among all treatment groups to ensure randomization. Each well was preloaded with a human thrombin solution (0.05 IU in 2.0 μl), and allowed to evaporate to dryness before use. All chemicals were purchased from Sigma Chemical Company (St. Louis, Mo.) unless otherwise indicated.
Following the placement of the 2 mm vein disc in the bottom of each thrombin-containing well, the disc was covered with 100 μl of a clot-forming medium, comprising 3 mg/ml fibrinogen and 0.5% Σ-amino caproic acid dissolved in Human Placental Vein Angiogenesis Media (HPVAM). HPVAM is made of Medium 199 (Vitrogen Corporation, Carlsbad, Calif.), an antibiotic/antimycotic solution (100 U/ml penicillin, 100 U/ml streptomycin sulfate, and 0.25 μg/ml amphotericin(3; Vitrogen Corporation), and endothelial growth medium (25%) (Vitrogen Corporation). The mixture was allowed to clot by incubating in 5% CO2, 95% air at 37° C. in a humidified incubator. After the medium-containing placental discs had clotted, the vein-containing clot was supplemented with 100 μl HPVAM containing 20% fetal bovine serum (Vitrogen Corporation). The total well volume was 200 μl.
Evaluation of Angiogenesis: Visual evaluation of all wells was performed at 20× or 40× magnification with a standardized reference grid by an unbiased observer using an inverted microscope. Every other day, discs were graded using two criteria: the initiation of sprouting vessels (initiation) and the degree of sprouting (angiogenic index). Initiation of an angiogenic response was defined as the development of three or more vessel sprouts around the periphery of the vein disc. Initiation occurred in 50-95% of the wells, usually 4 to 6 days after establishment of the clots. Initiation was expressed as the percent of the total wells plated that indicated an angiogenic response.
The angiogenic index (AI) was defined using a subjective visual rating system. Each disc was visually rated for the development of vessel sprouting in each of four quadrants. Each of the four quadrants for each disc was rated on a 0-4 scale, depending on the number of sprouts (density) and the length of sprouts. Scores for all four quadrants were summed to express the AI, a numerical rating that could range from 0 to 16. A score of zero indicated no vessel growth in any of the four quadrants, while a score of 16 indicated long, dense angiogenic vessel growth in all four quadrants. For most experiments, the AI was expressed as a mean plus/minus a standard error of the mean.
To separate the process of initiation from that of proliferation, the AI was analyzed both with zero AI data points and without zero AI data points. […] This lack of initiation could have been due either to the effect of the experimental compound, to the insensitivity of the vein disc to stimulation in the culture conditions, or to the vein disc not being viable. In previous experiments, we have shown that only a small percent, about 2 to 3%, of vein discs are not viable (data not shown). Thus, a graph of AI with zero AI data points indicates the complete angiogenic response of initiation and growth under the experimental conditions. However, a graph of AI without the zero AI data points indicates only growth of the vessels after initiation. […]

For series [2] the following is noted: 5% gallic acid, oral, 13 wks; cited from earlier work.
Series [3] concerns human fat tissue. Kind of series: Human fat tissue angiogenesis assay. The conditions noted are these: 0.01 M and 0.001 M, data not shown. The class given is cell-based. On the procedure: To test the angiogenic activity of plant extracts in another tissue, the refined fraction PUG100 was tested for its anti-angiogenic activity in human fat tissue taken from patients having gastric bypass surgery (Vista Surgical Hospital, Baton Rouge, La.). The human fat tissue assay was conducted very similar to that described in Example 1 for human placental vein tissue. […] (FIG. 25a). Immediately after the addition of the refined fraction PUG100, angiogenic vessel growth started to diverge. The control wells continued their growth, but the PUG100 treated wells stopped further growth. […] (Data not shown).

Where [4] appears, read: Homo sapiens, 336 h, 14 days in culture, FIG. 12a, read-out: inhibition of angiogenic initiation compared to the control.
[5] abbreviates: Homo sapiens, FIG. 12b, read-out: inhibition of angiogenesis compared with the control (mean AI with the zero points).
The mark [6] stands for this setting: Homo sapiens, FIG. 12b, read-out: inhibition of angiogenic growth compared with the control (mean AI without the zero points).
[7] abbreviates: highest concentration tested (2×10^−2M; octyl gallate 2×10^−3 M), FIG. 13a.

Each structure is given as a SMILES string. Where two headings read alike, the source gives them in different places. Where only a bound is given, the exact number is not on record here.

For the compound `CCCCOC(=O)c1cc(O)c(O)c(O)c1` [butyl gallate], the results for the inhibition at 0.01 % strength in series [1] (setting [4]), in series [1] (setting [5]) and in series [1] (setting [6]) were 85%, 96% and 74%, respectively. For the same compound, in series [1] (setting [7]), the initiation of angiogenesis result was “totally blocked”.
Take `CCCOC(=O)c1cc(O)c(O)c(O)c1` [propyl gallate]: the inhibition at 0.01 % strength in series [1] (setting [4]) amounted to 46%; in series [1] (setting [5]), 61%; in series [1] (setting [6]), 28%.
Regarding `CCCCCCCCOC(=O)c1cc(O)c(O)c(O)c1` [octyl gallate], the “lowest concentration indicating inhibition of angiogenesis” value in series [1] is 200 µM. For the same compound, the initiation of angiogenesis result in series [1] (2×10^−4 M, FIG. 13a) was “totally blocked”; in series [1] (setting [7]) it was “totally blocked”. Further, the “mean AI with the zero points included (initiation and proliferation)” value in series [1] (2×10^−4 M, FIG. 13b) is given as “effective”. In addition, the inhibition at 0.01 % strength in series [1] (setting [4]) was 85%; in series [1] (setting [5]), 97%; in series [1] (setting [6]), 83%.
With `COC(=O)c1cc(O)c(O)c(O)c1` [methyl gallate], the figures for the inhibition at 0.01 % strength in series [1] (setting [4]), in series [1] (setting [5]) and in series [1] (setting [6]) were 38%, 71% and 52%, respectively.
Turning to `O=C(OC[C@H]1O[C@@H](OC(=O)c2cc(O)c(O)c(OC(=O)c3cc(O)c(O)c(O)c3)c2)[C@H](OC(=O)c2cc(O)c(O)c(OC(=O)c3cc(O)c(O)c(O)c3)c2)[C@@H](OC(=O)c2cc(O)c(O)c(OC(=O)c3cc(O)c(O)c(O)c3)c2)[C@@H]1OC(=O)c1cc(O)c(O)c(OC(=O)c2cc(O)c(O)c(O)c2)c1)c1cc(O)c(O)c(OC(=O)c2cc(O)c(O)c(O)c2)c1` [tannic acid, Tannic acid], in series [1] (0.1% in HPVAM, FIG. 8a), the initiation of angiogenesis result is reported as “inhibited the initiation of angiogenesis even better than the positive heparin-steroid control”.
Take `O=C(O)c1cc(O)c(O)c(O)c1` [gallic acid, 3,4,5-trihydroxy benzoic acid]: the body weight gain entry in series [2] is reported as “suppress body weight gain”. In addition, the initiation of angiogenesis entry in series [1] (0.025%, added after six days, FIG. 5a) is “totally inhibited”; in series [1] (10^−3 M, FIG. 6a), “totally inhibited”; in series [1] (setting [7]), “totally blocked”; in series [3], “inhibited initiation of angiogenesis”. For the same compound, in series [1] (10^−3 M, FIG. 6b), the “mean AI with the zero points included (initiation and proliferation)” value is reported as “totally inhibited angiogenesis”. Further, the Percent initiation in series [1] (10^−4 M, FIG. 6a) was found to be 56%; in series [1] (10^−5 M, FIG. 6a), 50%; in series [1] (up to 10^−10 M, FIG. 6a), 33%. Also, in series [1] (FIG. 6b), the “concentrations at which the inhibitory effect stopped (mean AI with zero points)” value is given as ≤ 10^−6 M. The “concentrations that showed inhibition (mean AI without the zero points, proliferation only)” value in series [1] (FIG. 6c) is recorded as “greater than 10^−4 M”. The inhibition at 25 µM in series [1] (Homo sapiens, read-out: estimated inhibition (IC19) if gallic acid were the only active compound, 2.5×10^−5 M) is 19%.
